Results reported in US8575163B2, “Pyrrolopyridinylpyrimidin-2-ylamine derivatives” (Merck Patent GmbH, priority 2009, dated 2013).

What follows are compounds tested against T1, PDK1 (Homo sapiens, UniProt O15530) (assay: Test for the inhibition of PDK1 (flashplate, 33P-ATP)). Details: His6-PDK1 3.4 nM, 4 μM ATP, 30° C., 60 min.
T1 construct: His6 (N)
T1 sequence (O15530 51-556 limits assumed): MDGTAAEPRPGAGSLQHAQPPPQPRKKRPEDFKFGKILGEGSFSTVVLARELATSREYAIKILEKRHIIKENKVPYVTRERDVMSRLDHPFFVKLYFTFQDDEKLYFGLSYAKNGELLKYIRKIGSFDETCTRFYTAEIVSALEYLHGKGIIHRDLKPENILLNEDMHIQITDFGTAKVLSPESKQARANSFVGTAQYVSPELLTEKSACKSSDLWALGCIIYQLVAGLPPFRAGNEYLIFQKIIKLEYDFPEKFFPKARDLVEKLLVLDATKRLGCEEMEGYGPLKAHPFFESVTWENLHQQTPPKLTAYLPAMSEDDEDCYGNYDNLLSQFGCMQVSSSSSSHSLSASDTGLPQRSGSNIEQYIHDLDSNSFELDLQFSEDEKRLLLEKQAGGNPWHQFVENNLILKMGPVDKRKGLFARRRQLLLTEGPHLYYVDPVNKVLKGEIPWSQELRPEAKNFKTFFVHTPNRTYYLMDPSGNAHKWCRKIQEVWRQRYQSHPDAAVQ
Type: biochemical
Experimental: The experimental batches are carried out in a flashplate system with 384 wells/microtitration plate.
In each case, the PDK1 sample His6-PDK1(1-50)(3.4 nM), the PDK1 substrate biotin-bA-bA-[…] (400 nM), 4 μM ATP (with 0.2 μCi of ^33 P-ATP/well) and the test substance in 50 μl of conventional experimental solution per well are incubated at 30° C. for 60 min. The test substances are employed in corresponding concentrations (if desired in a dilution series). The control is carried out without test substance. The reaction is stopped using standard methods and washed. The activity of the kinase is measured via the incorporated radioactivity in top count. In order to determine the non-specific kinase reaction (blank value), the experimental batches are carried out in the presence of 100 nM staurosporin.
The radioactivity (decompositions per minute) of the blank value (no use of test substance in the presence of staurosporin) is subtracted from all other radioactivity values. The controls (kinase activity without test substance) are set equal to 100 percent and all other radioactivity values (after subtracting the blank value) are expressed set in relation thereto (for example in % of the control).
[formula] IC50 values (50% inhibition) are determined with the aid of statistics programmes, such as, for example, RS1.

IC50 [nM] | Structure (SMILES)
38 | CC(O)(c1ccccc1)c1cc(-c2c[nH]c3ncc(-c4cnn(CCO)c4)cc23)nc(N)n1 (single isomer, unassigned) [A97, 1-(2-amino-6-{5-[1-(2-hydroxyethyl)-1H-pyrazol-4-yl]-1H-pyrrolo[2,3-b]-pyridin-3-yl}pyrimidin-4-yl)-1-phenylethanol]
> 20000 | COCOC(C)(c1cccc(F)c1)c1nc(N)nc(-c2c[nH]c3ncc(Br)cc23)c1F (stereo not shown) [A12, 4-(5-bromo-1H-pyrrolo[2,3-b]pyridin-3-yl)-5-fluoro-6-[1-(3-fluorophenyl)-1-methoxymethoxyethyl]pyrimidin-2-ylamine]
39 | CC(C(=O)N1CCCC1)n1cc(-c2cnc3[nH]cc(-c4cc(C(C)(O)c5ccccc5)nc(N)n4)c3c2)cn1 (stereo not shown) [A14, 2-(4-{3-[2-amino-6-(1-hydroxy-1-phenylethyl)pyrimidin-4-yl]-1H-pyrrolo-[2,3-b]pyridin-5-yl}pyrazol-1-yl)-1-pyrrolidin-1-ylpropan-1-one]
500 | COCOC(C)(c1ccccc1)c1cc(-c2c[nH]c3ncc(Br)cc23)nc(N)n1 (stereo not shown) [A15, 4-(5-bromo-1H-pyrrolo[2,3-b]pyridin-3-yl)-6-(1-methoxymethoxy-1-phenylethyl)pyrimidin-2-ylamine]
280 | CCCC(O)(c1ccccc1)c1cc(-c2c[nH]c3ncc(Br)cc23)nc(N)n1 (stereo not shown) [A16, 1-[2-amino-6-(5-bromo-1H-pyrrolo[2,3-b]pyridin-3-yl)pyrimidin-4-yl]-1-phenylbutan-1-ol]
58 | COCOC(C)(c1ccccc1)c1cc(-c2c[nH]c3ncc(-c4cnn(C)c4)cc23)nc(N)n1 (stereo not shown) [A17, 4-(1-methoxymethoxy-1-phenylethyl)-6-[5-(1-methyl-1H-pyrazol-4-yl)-1H-pyrrolo[2,3-b]pyridin-3-yl]pyrimidin-2-ylamine]
1500 | COCOC(C)(c1cc(-c2c[nH]c3ncc(Br)cc23)nc(N)n1)c1ccccc1C (stereo not shown) [A19, 4-(5-bromo-1H-pyrrolo[2,3-b]pyridin-3-yl)-6-(1-methoxymethoxy-1-o-tolylethyl)pyrimidin-2-ylamine]
59 | COCOC(C)(c1cccc(C)c1)c1cc(-c2c[nH]c3ncc(-c4cnn(CCO)c4)cc23)nc(N)n1 (stereo not shown) [A22, 2-(4-{3-[2-amino-6-(1-methoxymethoxy-1-m-tolylethyl)pyrimidin-4-yl]-1H-pyrrolo[2,3-b]pyridin-5-yl}pyrazol-1-yl)ethanol]
130 | COCOC(C)(c1cccc(C)c1)c1cc(-c2c[nH]c3ncc(-c4cnn(C)c4)cc23)nc(N)n1 (stereo not shown) [A23, 4-(1-methoxymethoxy-1-m-tolylethyl)-6-[5-(1-methyl-1H-pyrazol-4-yl)-1H-pyrrolo[2,3-b]pyridin-3-yl]pyrimidin-2-ylamine]
56 | Cn1cc(-c2cnc3[nH]cc(-c4cc(C(C)(O)c5cccnc5)nc(N)n4)c3c2)cn1 (stereo not shown) [A24, 1-{2-amino-6-[5-(1-methyl-1H-pyrazol-4-yl)-1H-pyrrolo[2,3-b]pyridin-3-yl]-pyrimidin-4-yl}-1-pyridin-3-ylethanol]
58 | COCOC(C)(c1ccccc1)c1cc(-c2c[nH]c3ncc(-c4cnn(C)c4)cc23)nc(N)n1 (stereo not shown) [A25, 4-(1-methoxymethoxy-1-phenylethyl)-6-[5-(1-methyl-1H-pyrazol-4-yl)-1H-pyrrolo[2,3-b]pyridin-3-yl]pyrimidin-2-ylamine]
43 | CCC(O)(c1cccnc1)c1cc(-c2c[nH]c3ncc(-c4cnn(C)c4)cc23)nc(N)n1 (stereo not shown) [A26, 1-{2-amino-6-[5-(1-methyl-1H-pyrazol-4-yl)-1H-pyrrolo[2,3-b]pyridin-3-yl]-pyrimidin-4-yl}-1-pyridin-3-ylpropan-1-ol]
32 | COC(C)(c1ccccc1)c1cc(-c2c[nH]c3ncc(-c4cnn(CCO)c4)cc23)nc(N)n1 (stereo not shown) [A27, 2-(4-{3-[2-amino-6-(1-methoxy-1-phenylethyl)pyrimidin-4-yl]-1H-pyrrolo-[2,3-b]pyridin-5-yl}pyrazol-1-yl)ethanol]
6.9 | CCC(O)(c1ccncc1)c1cc(-c2c[nH]c3ncc(-c4cnn(C)c4)cc23)nc(N)n1 (stereo not shown) [A28, 1-{2-amino-6-[5-(1-methyl-1H-pyrazol-4-yl)-1H-pyrrolo[2,3-b]pyridin-3-yl]-pyrimidin-4-yl}-1-pyridin-4-ylpropan-1-ol]
40 | COCOC(C)(c1cc(-c2c[nH]c3ncc(-c4cnn(C)c4)cc23)nc(N)n1)c1cccc(Cl)c1F (stereo not shown) [A29, 4-[1-(3-chloro-2-fluorophenyl)-1-methoxymethoxyethyl]-6-[5-(1-methyl-1H-pyrazol-4-yl)-1H-pyrrolo[2,3-b]pyridin-3-yl]pyrimidin-2-ylamine]
130 | CCC(OCOC)(c1cc(-c2c[nH]c3ncc(-c4cnn(C)c4)cc23)nc(N)n1)c1cccc(Cl)c1F (stereo not shown) [A30, 4-[1-(3-chloro-2-fluorophenyl)-1-methoxymethoxypropyl]-6-[5-(1-methyl-1H-pyrazol-4-yl)-1H-pyrrolo[2,3-b]pyridin-3-yl]pyrimidin-2-ylamine]
44 | Cn1cc(-c2cnc3[nH]cc(-c4cc(C(C)(O)c5ccc(CO)cc5)nc(N)n4)c3c2)cn1 (stereo not shown) [A31, 1-{2-amino-6-[5-(1-methyl-1H-pyrazol-4-yl)-1H-pyrrolo[2,3-b]pyridin-3-yl]-pyrimidin-4-yl}-1-(4-hydroxymethylphenyl)ethanol]
25 | CCC(OCOC)(c1cc(-c2c[nH]c3ncc(-c4cnn(C)c4)cc23)nc(N)n1)c1ccncc1F (stereo not shown) [A32, 4-[1-(3-fluoropyridin-4-yl)-1-methoxymethoxypropyl]-6-[5-(1-methyl-1H-pyrazol-4-yl)-1H-pyrrolo[2,3-b]pyridin-3-yl]pyrimidin-2-ylamine]
170 | CCC(OCOC)(c1ccncc1)c1cc(-c2c[nH]c3ncc(Br)cc23)nc(N)n1 (stereo not shown) [A34, 4-(5-bromo-1H-pyrrolo[2,3-b]pyridin-3-yl)-6-(1-methoxymethoxy-1-pyridin-4-ylpropyl)pyrimidin-2-ylamine]
56 | CCCC(OCOC)(c1ccncc1)c1cc(-c2c[nH]c3ncc(-c4cnn(C)c4)cc23)nc(N)n1 (stereo not shown) [A36, 4-(1-methoxymethoxy-1-pyridin-4-ylbutyl)-6-[5-(1-methyl-1H-pyrazol-4-yl)-1H-pyrrolo[2,3-b]pyridin-3-yl]pyrimidin-2-ylamine]
25 | CCC(OCOC)(c1cc(-c2c[nH]c3ncc(-c4cnn(C)c4)cc23)nc(N)n1)c1ccncc1F (stereo not shown) [A37, 4-[1-(3-fluoropyridin-4-yl)-1-methoxymethoxypropyl]-6-[5-(1-methyl-1H-pyrazol-4-yl)-1H-pyrrolo[2,3-b]pyridin-3-yl]pyrimidin-2-ylamine]
140 | CC(=O)N1CCN(c2ccc(-c3cnc4[nH]cc(-c5cc(C(C)(O)c6ccccc6)nc(N)n5)c4c3)cn2)CC1 (stereo not shown) [A38, 1-[4-(5-{3-[2-amino-6-(1-hydroxy-1-phenylethyl)pyrimidin-4-yl]-1H-pyrrolo-[2,3-b]pyridin-5-yl}pyridin-2-yl)piperazin-1-yl]ethanone]
91 | CC(O)(c1ccccc1)c1cc(-c2c[nH]c3ncc(-c4cnn(C(F)F)c4)cc23)nc(N)n1 (stereo not shown) [A39, 1-{2-amino-6-[5-(1-difluoromethyl-1H-pyrazol-4-yl)-1H-pyrrolo[2,3-b]pyridin-3-yl]pyrimidin-4-yl}-1-phenylethanol]
54 | CC(O)(c1ccccc1)c1cc(-c2c[nH]c3ncc(-c4cnn(C(F)F)c4)cc23)nc(N)n1 (stereo not shown) [A40, 1-{2-amino-6-[5-(1-difluoromethyl-1H-pyrazol-4-yl)-1H-pyrrolo[2,3-b]pyridin-3-yl]pyrimidin-4-yl}-1-phenylethanol]
55 | CC[C@@](O)(c1ccncc1)c1cc(-c2c[nH]c3ncc(-c4cnn(CC(=O)N5CCCCC5)c4)cc23)nc(N)n1 [A46, 2-(4-{3-[2-amino-6-((R)-1-hydroxy-1-pyridin-4-ylpropyl)pyrimidin-4-yl]-1H-pyrrolo[2,3-b]pyridin-5-yl}pyrazol-1-yl)-1-piperidin-1-ylethanone]
100 | CC(O)(c1ccccc1)c1cc(-c2c[nH]c3ncc(-c4cnn(Cc5cccs5)c4)cc23)nc(N)n1 (stereo not shown) [A47, 1-{2-amino-6-[5-(1-thiophen-2-ylmethyl-1H-pyrazol-4-yl)-1H-pyrrolo[2,3-b]-pyridin-3-yl]pyrimidin-4-yl}-1-phenylethanol]
140 | CC(O)(c1ccccc1)c1cc(-c2c[nH]c3ncc(-c4cnn(S(C)(=O)=O)c4)cc23)nc(N)n1 (stereo not shown) [A48, 1-{2-amino-6-[5-(1-methanesulfonyl-1H-pyrazol-4-yl)-1H-pyrrolo[2,3-b]pyridin-3-yl]pyrimidin-4-yl}-1-phenylethanol]
36 | CC(O)(c1cccc(F)c1)c1cc(-c2c[nH]c3ncc(-c4ccc(CO)cc4)cc23)nc(N)n1 (stereo not shown) [A49, 1-{2-amino-6-[5-(4-hydroxymethylphenyl)-1H-pyrrolo[2,3-b]pyridin-3-yl]-pyrimidin-4-yl}-1-(3-fluorophenyl)ethanol]
